Assay [1] deals with T1, Delta-type opioid receptor (Homo sapiens, UniProt P41143). As to the kind of experiment: HTS Image-Based Screen for Antagonists of the DOR Receptor. [Related pubchem assays (depositor defined):AID1777, AID1785, AID1786, AID2133]. In kind it is functional.
The next assay addresses Mu-type opioid receptor (Homo sapiens, UniProt P35372). As to the kind of experiment: HTS Image-Based Screen for Agonists of the MOR Receptor. [Related pubchem assays (depositor defined):AID1777, AID1785, AID1786, AID2133]. It is filed as functional.
For assay [2], the target named is T1, Delta-type opioid receptor. As to the kind of experiment: HTS Image-Based Screen for Agonists of the DOR Receptor. [Related pubchem assays (depositor defined):AID1777, AID1786, AID2133]. In kind it is functional.
The target in assay [3] is T2, Kappa-type opioid receptor (Homo sapiens, UniProt P41145). In kind it is functional.
Assay [4] has as its target T2, Kappa-type opioid receptor. It is filed as functional. The source holds these as a separate data set.
Assay [5] in a line: inhibitors of intracellular T. cruzi replication, confirmation, NIH3T3 host cells, beta-gal luminescence (AID 2044).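 Also: intracellular parasites grown in NIH/3T3 mouse fibroblasts as host cells; luminescent beta-galactosidase reporter signal from transgenic T. cruzi replicating inside host cells; inhibitors lower the luminescence signal.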 It is filed as functional, cell-based.
In assay [6] the target is Voltage-gated inwardly rectifying potassium channel KCNH2 (Homo sapiens, UniProt Q12809). As to the kind of experiment: hERG protection from proarrhythmic block, potency, dose response, cell-based, thallium flux (AID 2121). In kind it is ADME.
A short description of assay [7]: mammalian cell cytotoxicity, dose response, cytotoxicity control, plate reader, cherry-pick samples (AID 504397). It is filed as functional, cell-based.
The test system of a further assay is HEK293. The assay is described as follows: inhibitors of LMP1-driven NF-kB reporter, dose response, cell-based, HEK293, luciferase, cherry-pick (AID 588343). In kind it is functional. Conditions: Homo sapiens.
A short description of assay [8]: Luminescence Cell-Based Dose Confirmation HTS to Identify Activators of 5'UTR Stem-Loop Driven Alpha-Synuclein mRNA Translation in H4 Neuroglioblastoma Cells. [Related pubchem assays: 1829 (Project Summary), 1814 (Primary HTS)]. It is filed as functional.
Assay [9] is described as follows: Luminescence Cell-Based Dose Response HTS to Identify Activators of Luciferase Translation or Activity in H4 […] Cells. [Related pubchem assays: 1829 (Project Summary), 1814 (Primary HTS)]. In kind it is functional.
The subject of a further assay is H4. As to the kind of experiment: Luminescence Cell-Based Dose Response HTS to Identify Activators of 5'UTR Stem-Loop Driven Prion Protein mRNA Translation in H4 Neuroglioblastoma Cells. [Related pubchem assays: 1829 (Project Summary), 1814 (Primary HTS)]. It is filed as functional. The following applies: Homo sapiens.
A short description of assay [10]: cytotoxicity toward NIH3T3 fibroblasts, dose response, counter-screen, cell-based, ATP luminescence, mouse fibroblasts (AID 2010).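 Also: cells exposed to compound for about 90 hours before reading.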 It is filed as functional.
For assay [11], the target named is DNA damage-inducible transcript 3 protein (Mus musculus, UniProt P35639). It is filed as functional, Cricetulus griseus.
In assay [12] the target is T3, Microphthalmia-associated transcription factor (Homo sapiens, UniProt O75030).
T3 sequence (O75030 whole entry): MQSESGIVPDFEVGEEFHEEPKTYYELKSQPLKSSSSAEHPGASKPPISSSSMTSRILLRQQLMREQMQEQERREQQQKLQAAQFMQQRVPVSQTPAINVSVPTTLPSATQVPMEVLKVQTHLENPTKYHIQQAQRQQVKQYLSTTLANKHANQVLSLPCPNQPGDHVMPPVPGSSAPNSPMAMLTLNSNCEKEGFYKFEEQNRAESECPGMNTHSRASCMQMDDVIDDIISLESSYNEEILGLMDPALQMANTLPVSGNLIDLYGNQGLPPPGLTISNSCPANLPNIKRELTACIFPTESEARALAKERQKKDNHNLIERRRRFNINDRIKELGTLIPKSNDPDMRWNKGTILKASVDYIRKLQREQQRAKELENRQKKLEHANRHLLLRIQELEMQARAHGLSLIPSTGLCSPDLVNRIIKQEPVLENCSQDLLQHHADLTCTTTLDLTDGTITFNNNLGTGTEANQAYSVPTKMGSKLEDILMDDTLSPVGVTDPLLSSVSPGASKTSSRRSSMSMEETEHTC
As to the kind of experiment: TRPM1 promoter luciferase signal decrease, dose response, MITF inhibitor project, cell-based, SK-MEL-5, cherry-picked, set 3 (AID 493073).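 Also: SK-MEL-5 melanoma cells with luciferase driven by the MITF target TRPM1 promoter.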 It is filed as functional.

Another assay concerns A-375. The assay is described as follows: MITF: Counter assay: A375 proliferation Measured in Cell-Based System Using Plate Reader - 2084-03_Inhibitor_Dose_DryPowder_Activity. [Related pubchem assays (depositor defined):AID488944]. It is filed as functional. The following applies: Homo sapiens.
Assay [13] in a line: Shn3 3'UTR reporter inhibitors, dose response, cell-based, Clone20 osteoblasts, firefly luciferase, cherry-picked (AID 624132).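 Also: firefly luciferase luminescence from reporter carrying the Shn3 3'UTR in osteoblasts.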 It is filed as functional.
Assay [14] can be described thus: HepG2 cell cytotoxicity, dose response, cytotoxicity control for Shn3 inhibitor project, CellTiter-Glo, cherry-picked (AID 624134). It is filed as functional, cell-based.
Assay [15] in a line: control 3'UTR Renilla luciferase suppression, dose response, counter-screen for Shn3 inhibitor project, cell-based, Clone20-Shn3RL, cherry-picked (AID 624133). It is filed as functional.

Here are results for three molecules from ChEMBL document CHEMBL1201862, “PubChem BioAssay data set” (2004).

SMILES strings stand for the structures. Activity calls are given as the source filed them.
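For IC50 in this document: U2OS cells expressing DOR stimulated with 100 nM SNC80 agonist.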

T2 sequence (P41145 whole entry): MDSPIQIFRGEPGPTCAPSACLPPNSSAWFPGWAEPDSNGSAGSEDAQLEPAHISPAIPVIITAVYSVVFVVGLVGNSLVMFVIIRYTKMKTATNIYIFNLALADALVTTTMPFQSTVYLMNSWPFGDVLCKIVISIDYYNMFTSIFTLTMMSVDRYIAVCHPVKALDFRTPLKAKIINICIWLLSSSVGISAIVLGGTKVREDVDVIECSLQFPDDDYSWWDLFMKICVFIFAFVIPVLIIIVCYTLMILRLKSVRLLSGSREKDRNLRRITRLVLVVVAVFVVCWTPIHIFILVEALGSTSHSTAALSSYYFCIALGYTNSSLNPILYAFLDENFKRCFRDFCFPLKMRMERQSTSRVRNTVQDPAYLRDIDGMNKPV
T1 sequence (P41143 whole entry): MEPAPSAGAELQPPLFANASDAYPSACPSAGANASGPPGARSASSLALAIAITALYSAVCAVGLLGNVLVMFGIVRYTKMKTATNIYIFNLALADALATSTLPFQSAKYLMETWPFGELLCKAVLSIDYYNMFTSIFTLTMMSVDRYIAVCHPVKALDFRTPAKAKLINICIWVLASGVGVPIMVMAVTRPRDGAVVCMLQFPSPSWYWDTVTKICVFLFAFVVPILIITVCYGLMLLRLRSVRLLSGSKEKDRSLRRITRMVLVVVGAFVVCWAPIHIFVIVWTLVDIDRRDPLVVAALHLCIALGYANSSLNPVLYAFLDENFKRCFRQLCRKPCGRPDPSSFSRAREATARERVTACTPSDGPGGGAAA
Chain of DNA damage-inducible transcript 3 protein (P35639 whole entry): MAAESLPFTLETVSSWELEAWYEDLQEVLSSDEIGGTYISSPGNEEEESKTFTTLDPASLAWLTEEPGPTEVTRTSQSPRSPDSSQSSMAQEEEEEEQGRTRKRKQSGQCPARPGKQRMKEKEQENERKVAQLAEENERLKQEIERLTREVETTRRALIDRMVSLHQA
Chain of Voltage-gated inwardly rectifying potassium channel KCNH2 (Q12809 whole entry): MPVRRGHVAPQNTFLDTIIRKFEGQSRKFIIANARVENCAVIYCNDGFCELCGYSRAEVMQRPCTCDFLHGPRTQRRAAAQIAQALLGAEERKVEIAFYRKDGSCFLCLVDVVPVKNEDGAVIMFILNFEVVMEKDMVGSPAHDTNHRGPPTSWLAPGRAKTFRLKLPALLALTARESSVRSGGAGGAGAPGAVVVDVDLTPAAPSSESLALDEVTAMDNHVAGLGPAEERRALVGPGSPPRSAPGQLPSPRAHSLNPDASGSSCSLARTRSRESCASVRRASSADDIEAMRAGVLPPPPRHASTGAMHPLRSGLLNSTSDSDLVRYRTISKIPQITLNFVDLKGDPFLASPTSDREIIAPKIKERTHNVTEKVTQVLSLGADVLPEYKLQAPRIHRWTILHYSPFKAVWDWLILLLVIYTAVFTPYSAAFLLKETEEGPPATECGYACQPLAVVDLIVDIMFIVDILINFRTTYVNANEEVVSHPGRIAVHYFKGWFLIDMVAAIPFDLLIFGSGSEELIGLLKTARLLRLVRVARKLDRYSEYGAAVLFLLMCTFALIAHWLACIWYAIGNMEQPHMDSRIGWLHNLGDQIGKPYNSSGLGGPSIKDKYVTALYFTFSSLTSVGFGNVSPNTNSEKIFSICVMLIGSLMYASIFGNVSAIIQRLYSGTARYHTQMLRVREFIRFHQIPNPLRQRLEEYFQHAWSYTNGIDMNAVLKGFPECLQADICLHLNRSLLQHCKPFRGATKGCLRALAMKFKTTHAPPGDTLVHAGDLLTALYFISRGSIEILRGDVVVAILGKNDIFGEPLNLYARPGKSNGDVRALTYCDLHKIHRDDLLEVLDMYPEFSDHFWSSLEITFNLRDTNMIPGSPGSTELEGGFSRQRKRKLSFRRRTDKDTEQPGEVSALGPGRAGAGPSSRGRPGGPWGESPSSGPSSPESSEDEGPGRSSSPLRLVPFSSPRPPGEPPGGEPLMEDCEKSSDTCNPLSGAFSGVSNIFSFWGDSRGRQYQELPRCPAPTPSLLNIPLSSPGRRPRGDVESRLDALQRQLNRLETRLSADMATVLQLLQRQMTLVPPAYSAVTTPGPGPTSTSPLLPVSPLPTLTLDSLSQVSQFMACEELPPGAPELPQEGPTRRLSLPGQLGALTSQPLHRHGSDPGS
Chain of Mu-type opioid receptor (P35372 whole entry): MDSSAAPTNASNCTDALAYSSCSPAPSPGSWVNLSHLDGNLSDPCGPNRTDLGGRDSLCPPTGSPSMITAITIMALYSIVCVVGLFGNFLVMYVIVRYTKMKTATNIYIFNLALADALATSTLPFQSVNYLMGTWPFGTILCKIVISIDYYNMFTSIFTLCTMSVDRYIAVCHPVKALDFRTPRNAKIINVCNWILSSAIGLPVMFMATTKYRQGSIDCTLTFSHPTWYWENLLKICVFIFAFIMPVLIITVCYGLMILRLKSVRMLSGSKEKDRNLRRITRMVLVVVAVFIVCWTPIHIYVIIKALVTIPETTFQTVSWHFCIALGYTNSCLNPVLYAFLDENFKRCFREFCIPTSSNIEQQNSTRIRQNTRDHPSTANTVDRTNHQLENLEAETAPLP

On to `CC(Sc1nnc(CN2CCCC2)n1Cc1ccccc1)C(=O)Nc1ccc(F)cc1` (stereo not given), for which the IC50 in [1] is > 32 µM (inactive). In addition, the EC50 on Mu-type opioid receptor was > 32 µM (inactive); in assay [2], > 32 µM (inactive); in assay [3], 3.82 µM; in assay [4], 3.33 µM.
On to `Oc1c(N=NC(S)=Nc2ccccc2F)c2ccccc2n1Cc1ccccc1F`, for which the EC50 was 1.26 µM (active) in [5] and 0.44 µM (active) in assay [6]. The concentration at half-maximal activity (AC50) in assay [7] is 302 µM (active); in the assay with HEK293, 4.06 µM (active).
Take `CC(C)(C)C(=O)Cn1ncc(Br)c(Br)c1=O`: the 50% effective concentration (EC50) is > 120 µM (not active) in assay [8]; > 120 µM (not active) in assay [9]; > 120 µM (not active) with H4; 2.19 µM (active) in [5]; 1.93 µM (active) in assay [10]. For the same molecule, the “Absolute IC50 (CHOP)” value in assay [11] worked out at 10 µM. Besides, the AC50 is 3.92 µM (active) in assay [12]; 32.8 µM (active) in the assay on A-375; 9.51 µM (active) in assay [13]; 67.2 µM (active) in [14]; 13.9 µM (active) in assay [15].
